pEC50: −log10 of the molar value. Where two headings read alike, the source gives them in different places.
Test system: Hepatitis C replicon in Huh-7 cells
Experiment: HCV replicon assay (inhibition of HCV replicon replication, NPT ELISA readout)
Format: cell-based
Conditions: Hepatitis C virus, 72 h, Huh-7 HCV replicon-containing cells, three days incubation
Experimental: Compounds claimed herein are tested for the ability to inhibit viral replication of the Hepatitis C replicon in cultured cells in which the HCV replicon construct has been incorporated. The HCV replicon system was described by Bartenschlager, et. al (Science, 285, pp. 110-113 (1999)). The replicon system is predictive of in vivo anti-HCV activity; compounds that are active in humans uniformly evidence activity in the replicon assay.
In this assay HCV replicon containing cells are treated with different concentrations of the test compound to ascertain the ability of the test compound to suppress replication of the HCV replicon. As a positive control, HCV replicon-containing cells are treated with different concentrations of interferon alpha, a known inhibitor of HCV replication. The replicon assay system includes Neomycin Phosphotransferase (NPT) as a component of the replicon itself in order to detect the transcription of replicon gene products in the host cell. Cells in which the HCV replicon is actively replicating have high levels of NPT; the level of NPT is proportional to HCV replication. […] The NPT level of each sample is measured using a captured ELISA.
A protocol for testing compounds for the ability to inhibit viral replication of the Hepatitis C replicon cultured cells in which the replicon construct has been incorporated, follows.
The HCV replicon contains, 5′-3′, the HCV-IRES, the neomycin phosphotransferase (neo) gene, the IRES of encephalomyocarditis virus, which directs translation of HCV sequences NS3 to NS5B, and the 3′-NTR. The sequence of the HCV replicon has been deposited in GenBank (Accession no. AJ242652).
The replicon is transfected into Huh-7 cells using standard methods such as electroporation.
The equipment and materials include, but are not limited to, Huh-7 HCV replicon-containing cells, maintenance media (DMEM (Dulbecco's modified Eagle media) supplemented with 10% FBS, L-glutamine, non-essential amino acids, penicillin (100 units/ml), streptomycin (100 micrograms/ml), and 500 micrograms/ml of Geneticin (G418), screening media (DMEM supplemented with 10% FBS, L-glutamine, non-essential amino acids, penicillin (100 units/ml) and streptomycin (100 micrograms/ml)), 96 well tissue culture plates (flat bottom), 96 well plates (U bottom for drug dilution), Interferon alpha for positive control, fixation reagent (such as methanol: acetone), primary antibody (rabbit anti-NPTII), secondary antibody: Eu-N1 1, and enhancement solution.
The cells are then seeded onto 96-well plates at a density of 6000-7500 cells/100 microliters/ well (6-7.5×10^5 cells/10 ml/plate). The plates are then incubated at 37° C. in a 5% CO2 incubator.
HCV replicon-containing cells are rinsed with once PBS once; 2 mls of trypsin are then added. Cells are incubated at 37° C. in a 5% CO2 incubator for 3-5 minutes. 10 mls of complete medium is added to stop the reaction. Cells are blown gently, put into a 15 ml tube, and spun at 1200 rpm for four minutes. The trypsin/medium solution is removed and 5 mls of medium (500 ml DMEM (high glucose)) from BRL catalog #12430-054; 50 mls 10% FBS, 5% Geneticin G418 (50 mg/ml, BRL catalog #10131-035), 5 ml MEM non-essential amino acids (100× BRL #11140-050) and 5 ml pen-strep (BRL #15140-148) is added. The cells and media are mixed carefully
Cells are plated with screening medium (500 ml DMEM (BRL #21063-029), 50 ml FBS (BRL #10082-147) and 5 ml MEM non-essential amino acid (BRL #11140-050) at 6000-7500 fcells/100 μl/well of 96 well plate (6-7.5×10^5 cells/10 ml/plate). Plates are placed into 37° C. 5% CO2 incubator overnight.
The following morning, drugs (test compounds or interferon alpha) are diluted in 96 well U bottom plates with media or DMSO/media, depending on the final concentration chosen for screening. Generally for 6 concentrations of each test compounds ranging from 10 micromolar to 0.03 micromolar are applied. […]

[1] = read-out: EC50 in HCV replicon assay
[2] = read-out: Activity (EC50 class in an HCV replicon assay)

Compound: CCCC(NC(=O)N1C[C@@H](OC(=O)N2CCc3ccccc3C2)C[C@H]1C(=O)N[C@H](C(=O)N[C@H](C(=O)OC)C1CCCCC1)C(C)(C)C)C(=O)C(=O)NC1CC1 (stereo partly drawn) [Compound 11, (3S,5S)-5-((S)-1-((S)-1-Cyclohexyl-2-Methoxy-2-Oxoethylamino)-3,3-Dimethyl-1-Oxobutan-2-Ylcarbamoyl)-1-(1-(Cyclopropylamino)-1,2-Dioxohexan-3-Ylcarbamoyl)Pyrrolidin-3-yl 3,4-Dihydroisoquinoline-2(1H)-Carboxylate]
- pEC50 [1]: ≥ 5.00

Compound: CCCC(NC(=O)N1C[C@@H](OC(=O)N2CCc3ccccc3C2)C[C@H]1C(=O)N[C@H](C(=O)N[C@H](C(=O)NC)C1CCCCC1)C(C)(C)C)C(=O)C(=O)NC1CC1 (stereo partly drawn) [Compound 16, (3S,5S)-5-((S)-1-((S)-1-Cyclohexyl-2-(Methylamino)-2-Oxoethylamino)-3,3-Dimethyl-1-Oxobutan-2-Ylcarbamoyl)-1-(1-(Cyclopropylamino)-1,2-Dioxohexan-3-Ylcarbamoyl)Pyrrolidin-3-Yl 3,4Dihydroisoquinoline-2(1H)-Carboxylate]
- pEC50 [1]: > 4.30

Compound: C=CC1CC1(NC(=O)N1C[C@@H](OC(=O)N2CCc3ccccc3C2)C[C@H]1C(=O)N[C@H](C(=O)N[C@H](C(=O)NC)C1CCCCC1)C(C)(C)C)C(=O)O (stereo partly drawn) [Compound 33, 1-((2S,4S)-2-((S)-1-((S)-1-Cyclohexyl-2-(Methylamino)-2-Oxoethylamino)-3,3-Dimethyl-1-Oxobutan-2-Ylcarbamoyl)-4-(1,2,3,4-Tetrahydroisoquinoline-2-Carbonyloxy)Pyrrolidine-1-Carboxamido)-2-Vinylcyclopropanecarboxylic Acid]
- pEC50 [1]: > 4.30

Compound: C=CC1CC1(NC(=O)N1C[C@@H](OC(=O)N2CCc3ccccc3C2)C[C@@H]1C(=O)N[C@H](C(=O)N[C@H](C(=O)NC)C(CC)CC)C(C)(C)C)C(=O)O (stereo partly drawn) [Compound 38, 1-((2R,4S)-2-((S)-1-((S)-3-Ethyl-1-(Methylamino)-1-Oxopentan-2-Ylamino)-3,3-Dimethyl-1-Oxobutan-2-Ylcarbamoyl)-4-(1,2,3,4-Tetrahydroisoquinoline-2-Carbonyloxy)Pyrrolidine-1-Carboxamido)-2-Vinylcyclopropanecarboxylic Acid]
- pEC50 [1]: > 4.30

Compound: CNC(=O)[C@@H](NC(=O)[C@@H]1CCCCC/C=C\CC(C(=O)C(=O)NC2CC2)NC(=O)N2C[C@@H](OC(=O)N3CCc4ccccc4C3)C[C@@H]2C(=O)N1)C1CCCCC1 (some centres unmarked) [Compound 39]
- pEC50 [1]: ≥ 5.00

Compound: CNC(=O)[C@@H](NC(=O)[C@@H]1CCCCC/C=C\C2CC2(C(=O)O)NC(=O)N2C[C@@H](OC(=O)N3CCc4ccccc4C3)C[C@@H]2C(=O)N1)C1CCCCC1 (some centres unmarked) [Compound 40]
- pEC50 [1]: ≥ 5.00

Compound: CCCC(NC(=O)N1C[C@@H](Oc2cc(-c3ccccc3)nc3cc(OC)ccc23)C[C@H]1C(=O)N[C@H](C(=O)N[C@H](C(=O)OC)C1CCCCC1)C(C)(C)C)C(=O)C(=O)NC1CC1 (some centres unmarked) [Compound 41]
- pEC50 [2]: > 5.00

Compound: C=CC1CC1(NC(=O)N1C[C@@H](Oc2cc(-c3ccccc3)nc3cc(OC)ccc23)C[C@H]1C(=O)NC(C(=O)N[C@H](C(=O)NC)C1CCCCC1)C(C)(C)C)C(=O)O (some centres unmarked) [Compound 42]
- pEC50 [2]: < 4.00

Compound: CCCC(NC(=O)N1C[C@@H](OC(=O)N2CCc3ccccc3C2)C[C@H]1C(=O)N[C@H](C(=O)OC(C)(C)C)C(C)(C)C)C(=O)C(=O)NC1CC1 (some centres unmarked) [Compound 43]
- pEC50 [2]: 4.00 to 5.00

Compound: CCCC(NC(=O)N1C[C@@H](OC(=O)N2CCCCC2)C[C@H]1C(=O)N[C@H](C(=O)OC(C)(C)C)C(C)(C)C)C(=O)C(=O)NC1CC1 (some centres unmarked) [Compound 44]
- pEC50 [2]: > 5.00

Compound: C=CC1CC1(NC(=O)N1C[C@@H](OC(=O)N2CCCCC2)C[C@H]1C(=O)N[C@H](C(=O)OC(C)(C)C)C(C)(C)C)C(=O)OCC (some centres unmarked) [Compound 45]
- pEC50 [2]: > 5.00

Compound: C=CC1CC1(NC(=O)N1C[C@@H](OC(=O)N2CCCCC2)C[C@H]1C(=O)N[C@H](C(=O)OC(C)(C)C)C(C)(C)C)C(=O)O (some centres unmarked) [Compound 46]
- pEC50 [2]: 4.00 to 5.00

Compound: C=CC1CC1(NC(=O)N1C[C@@H](OC(=O)N2CCCCC2)C[C@H]1C(=O)N[C@H](C(=O)OC(C)(C)C)C(C)(C)C)C(=O)NS(=O)(=O)C1CC1 (some centres unmarked) [Compound 47]
- pEC50 [2]: > 5.00

Compound: C=CC1CC1(NC(=O)N1C[C@@H](Oc2cc(-c3ccccc3)nc3cc(OC)ccc23)C[C@H]1C(=O)N[C@H](C(=O)N[C@H](C(=O)NC)C1CCCCC1)C(C)(C)C)C(=O)NS(=O)(=O)C1CC1 (some centres unmarked) [Compound 48]
- pEC50 [2]: > 5.00

Reference: patent publication US8163693B2, “Urea-containing peptides as inhibitors of viral replication” (Achillion Pharmaceuticals, Inc., priority 2007, dated 2012)
